For assay [1], the system named is P. aeruginosa strain AU7443, mucoid. As to the kind of experiment: Killing of P. aeruginosa AU7443, mucoid by colistin with Apyrase Agent, CFU count. The assay is classed as cell-based. The following applies: colistin at less than 20 μg/ml, with Apyrase Agent 2 U/ml or alone. The procedure:
(§1) In this Example (and in subsequent Examples), the colistin is colistin sulfate salt, catalog number C4461 from Sigma-Aldrich (St. Louis, Mo.) and the apyrase is catalog number M0393L from New England BioLabs Inc. (Ipswich, Mass.).
(§2) P. aeruginosa strain AU7443, mucoid is grown in the presence of combinations of 0 and 2 U/ml of Apyrase Agent and approximately 0 to 20 μg/ml of colistin. After incubation, the numbers of viable cells are determined by counting the colony forming units (CFU) on the plate (data provided as CFU/ml). Apyrase Agent improves the efficiency of killing P. aeruginosa strain AU7443, mucoid by colistin. Apyrase Agent increases the effectiveness of colistin at less than 20 μg/ml such that less than 10 to 100 CFU/ml are detected relative to greater than 10^4 to 10^5 in the presence of colistin alone at the same concentrations.

Assay [2] has as its system Burkholderia vietnamiensis AU 10214. As to the kind of experiment: Killing of Burkholderia vietnamiensis AU 10214 by colistin with Apyrase Agent, CFU count. It counts as cell-based. Particulars: colistin at less than 20 μg/ml, with Apyrase Agent 2 U/ml or alone. The procedure: as §1
as §2, with “Burkholderia vietnamiensis AU 10214” for “P. aeruginosa strain AU7443, mucoid”, “10^5” for “10^4”, “10^6” for “10^5”

For assay [3], the system named is Burkholderia cepacia GIIIb AU0062. The experiment in a line: Killing of Burkholderia cepacia GIIIb AU0062 by colistin with Apyrase Agent, CFU count. It counts as cell-based. Particulars: colistin at less than 20 μg/ml, with Apyrase Agent 2 U/ml or alone. As to the method:
as §1
as §2, with “Burkholderia cepacia GIIIb AU0062” for “P. aeruginosa strain AU7443, mucoid”

Assay [4] has as its system Burkholderia ambifaria AU5203. The experiment in a line: Killing of Burkholderia ambifaria AU5203 by colistin with Apyrase Agent, CFU count. Particulars: colistin at less than 20 μg/ml, with Apyrase Agent 2 U/ml or alone. The assay is classed as cell-based. As to the method: as §1
as §2, with “Burkholderia ambifaria AU5203” for “P. aeruginosa strain AU7443, mucoid”, “10^5” for “10^4”, “10^6” for “10^5”

Assay [5] relates to Burkholderia cepacia GIIIb AU0055. As to the kind of experiment: Killing of Burkholderia cepacia GIIIb AU0055 by colistin with Apyrase Agent, CFU count. The assay is classed as cell-based. The following applies: colistin at less than 10 μg/ml, with Apyrase Agent 2 U/ml or alone. As to the method:
as §1
as §2, with “Burkholderia cepacia GIIIb AU0055 is” for “P. aeruginosa strain AU7443, mucoid is”, “killing Burkholderia cepacia GIIIb AU0055” for “killing P. aeruginosa strain AU7443, mucoid”, “than 10” for “than 20”

Assay [6] concerns Burkholderia dolosa AU0589. As to the kind of experiment: Killing of Burkholderia dolosa AU0589 by colistin with Apyrase Agent, CFU count. It counts as cell-based. The following applies: colistin at less than 20 μg/ml, with Apyrase Agent 2 U/ml or alone. As to the method: as §1
as §2, with “Burkholderia dolosa AU0589” for “P. aeruginosa strain AU7443, mucoid”, “10^6” for “10^4”, “10^7” for “10^5”

In another assay the test system is A. baumannii ATCC DMCI. The experiment in a line: Mouse model for wound infection and healing (burn), A. baumannii ATCC DMCI, treatment 24 hours after inoculation. The following applies: wounds treated 24 hours after inoculation, skin collected 48 hours after the burn. The assay is classed as in vivo. The procedure:
e.g., in a mouse model for wound infection and healing. After a burn, A. baumannii ATCC DMCI is inoculated on skin. After 24 hours, the wounds are treated with Apyrase Agent alone, colistin alone, or Apyrase Agent and colistin in combination. Skin samples are collected after another 24 hours and the CFU/g skin of A baumannii ATCC DMCI is determined. […] In the presence of Apyrase Agent or colistin alone, A. baumannii is detected at amounts of approximately 10^8 CFU/g of skin.

A further assay deals with A. baumannii DMCI. The experiment in a line: Mouse burn wound infection model, A. baumannii DMCI, six groups. The assay is classed as in vivo. Particulars: C57BL/6 mice, 24 hours after burn, colistin 4 μg/ml, treatment immediately after inoculation. An excerpt: An established mouse wound model is used for these tests. Female pathogen-free C57BL/6 mice (Harlan, Indianapolis, Ind.), 12 weeks old, weighing ˜20-25 grams are used in all experiments. The skin over the lumbrosacral and back region is clipped using a 35-W model 5-55E electrical clipper (Oyster-Golden A-S, Head no. 80, blade size 40) by using the method described by Ipaktchi et al. with slight modification. Two hundred microliters of 0.9% saline suspension of A. baumannii DMCI (I×10^6 cells/ml), which is a highly colistin resistant clinical strain, is used for wound infection experiments. Viable bacterial numbers are determined 24 hours after burn. The Student t-test is used for statistical analysis.
Experiments are carried out in six groups (I) a control group, which contains neither apyrase nor colistin; (2) potato apyrase group, which contains potato apyrase (I U/ml); (3) colistin group, which contains colistin (4 μg/ml); (4) potato apyrase and colistin group, (5) Apyrase Agent group, (6) Apyrase Agent and colistin group.
The treatment is applied immediately after inoculation. After 24 hours, the mice are given lethal IP injections of pentobarbital (150 mg/kg) and skin samples are collected using a scalpel and scissors.

We go through one substance from patent US20170333532A1, “ADP'ASE-ENHANCED APYRASE THERAPY FOR WOUNDS, MICROBIAL INFECTION, SEPSIS, AND HETEROTOPIC OSSIFICATION” (APT THERAPEUTICS, INC, priority 2014, published 2017).

Regarding colistin sulfate salt, the “numbers of viable cells (CFU)” value in assay [1] is 10^4 to 10^5 CFU/ml; in assay [2], 10^5 to 10^6 CFU/ml; in assay [3], 10^4 to 10^5 CFU/ml; in assay [4], 10^5 to 10^6 CFU/ml; in assay [5], 10^4 to 10^5 CFU/ml; in assay [6], 10^6 to 10^7 CFU/ml. The “A. baumannii detected on skin” value in the assay on A. baumannii ATCC DMCI is listed as “approximately 10^8 CFU/g of skin”. Moreover, in the assay on A. baumannii DMCI, the “viable bacteria number recovered from burn sites” value was “highest viable bacteria number”.
